Data as given in US20260217691A1, “FOXM1 INHIBITORS AND THEIR USE IN TREATING CANCERS” (THE BOARD OF TRUSTEES OF THE UNIVERSITY OF ILLINOIS, priority 2022, published 2026).

What was measured:
[1] = test system: KG-1, HL-60, K562, THP-1 cells; type: cell-based
[2] = test system: canonical FOXM1 target genes; assay: Real-time PCR of canonical FOXM1 target genes in primary AML mononuclear cells treated ex vivo; type: cell-based, human; details: primary AML samples (n=5), 5 μM, 24 h
OVCAR-8, ES-2 cells = assay: Chemosensitization (caspase-3 cleavage) of ovarian cancer cells to doxorubicin; type: cell-based, human
Description: (§1) FIG. 16. […] (A) Ovarian cancer (OVCAR-8 and ES-2) cells were treated with indicated concentrations of Doxorubicin (Doxo) alone or in combination with STL001 for 24 hrs. […] (C) colon cancer (HCT-116 and FET) cells were treated with indicated concentrations of 5′FU alone or in combination with STL001 for 24 hrs.

[3] = test system: HCT-116 and HCT-FET cells; assay: Chemosensitization (caspase-3 cleavage) of colorectal cancer cells to 5′FU; type: cell-based, human
Description: as §1

22RV1, LNCaP cells = test system: 22RV1, LNCaP cells
Description: (§2) FIG. 17. […] (A) Prostate cancer (22RV1 and LNCaP) cells were treated with indicated concentrations of paclitaxel alone or in combination with STL001 for 24 hrs. (B) Tamoxifen resistance MCF-7 breast cancer cells (TAM-R) were treated with indicated concentrations of Tamoxifen alone or in combination with STL001 for 24 hrs. In all cases, total protein samples were obtained from cells immediately after treatment and analyzed for FOXM1, cleaved caspase-3 levels via immunoblotting, β-actin was used as internal loading control (n=3). (C) Percent (%) dead cells in TAM-R cells treated with indicated concentrations of Tamoxifen alone or in combination with STL001 for 24 hrs. […] (F) HCC 143 cells with stable shRNA-mediated FOXM1 knockdown (KD) were treated with doxorubicin alone or in combination with STL001 for 24 hrs and compared to parental cells under the same treatment conditions. In all cases, total protein samples were obtained from cells immediately after treatment and analyzed for FOXM1, cleaved caspase-3 levels via immunoblotting, β-actin was used as internal loading control (n=3).

TAMR cells = type: cell-based
Description: as §2

HCC-1143 cells = details: HCC-1143 FOXM1-KD, doxorubicin
Description: as §2
Stable FOXM1-expression knockdown in cancer cell: Cells were seeded on commercially available 12-well tissue culture plates to achieve ~40% confluency. […] Transduced cells were selected by their cultivation with puromycin (1.0 μg/mL) for 10 days and then maintained without puromycin as described above.

FLO-1 cells = assay: Chemosensitization of esophageal adenocarcinoma cells; type: cell-based; details: 24 hrs
Description: In all cases, total protein samples were obtained from cells immediately after treatment and analyzed for FOXM1, cleaved caspase-3 levels via immunoblotting, β-actin was used as internal loading control (n=3). […] In all cases, total protein samples were obtained from cells immediately after treatment and analyzed for FOXM1 and cleaved caspase-3 levels via immunoblotting, β-actin was used as internal loading control.

FOXM1 = target: T1, FOXM1 (Homo sapiens, UniProt Q08050); assay: FOXM1 protein levels by immunoblotting in solid cancer cell lines
T1 sequence (Q08050 1-763): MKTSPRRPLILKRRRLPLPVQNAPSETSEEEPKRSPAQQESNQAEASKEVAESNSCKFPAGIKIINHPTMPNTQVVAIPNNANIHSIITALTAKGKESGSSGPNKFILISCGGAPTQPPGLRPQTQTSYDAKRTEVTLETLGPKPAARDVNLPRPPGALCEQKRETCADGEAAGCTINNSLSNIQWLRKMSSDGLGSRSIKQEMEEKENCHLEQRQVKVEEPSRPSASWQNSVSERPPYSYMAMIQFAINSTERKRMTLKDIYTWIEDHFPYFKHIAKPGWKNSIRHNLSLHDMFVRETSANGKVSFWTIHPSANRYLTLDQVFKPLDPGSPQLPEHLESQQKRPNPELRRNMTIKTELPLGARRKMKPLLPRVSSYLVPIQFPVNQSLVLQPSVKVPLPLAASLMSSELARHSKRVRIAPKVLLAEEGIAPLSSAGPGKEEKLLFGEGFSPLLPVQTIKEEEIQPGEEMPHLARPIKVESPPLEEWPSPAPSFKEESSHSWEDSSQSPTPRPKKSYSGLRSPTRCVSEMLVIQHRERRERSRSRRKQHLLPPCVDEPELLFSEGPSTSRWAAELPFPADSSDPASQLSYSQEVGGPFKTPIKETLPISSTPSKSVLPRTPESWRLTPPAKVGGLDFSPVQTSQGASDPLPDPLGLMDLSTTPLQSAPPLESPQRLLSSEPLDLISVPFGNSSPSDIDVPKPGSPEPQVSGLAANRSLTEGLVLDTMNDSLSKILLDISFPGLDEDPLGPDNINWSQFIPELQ
Description: Cell culture: Human cell lines LNCaP and 22Rv1 (human prostate carcinoma), OVCAR8 and ES-2 (High-grade serous ovarian cancer, HGSOC), HCT-116 and HCT-FET (human colorectal carcinoma), HCC-1143 (triple negative breast cancer (TNBC), TAMR (Tamoxifen resistant MCF7) human breast cancer, were provided from various investigators. LNCaP and 22Rv1 cell lines were cultured in RPMI-1640 with 2 mM L-Glutamine (Gibco; Thermo Fisher Scientific, Waltham, MA, USA). HCC-1143 cell lines were cultured in Iscove's Modified Dulbecco Medium (IMDM) with 2 mM L-Glutamine (Gibco; Thermo Fisher Scientific). OVCAR-8, ES-2, HCT-116, and HCT-FET cell lines were cultured in Dulbecco's Modified Eagle Medium (DMEM) with 4.5 g/L glucose and 4 mM L-Glutamine (Gibco; Thermo Fisher Scientific). For all cell lines, the growth media was supplemented with 10% Foetal Bovine Serum (FBS), penicillin (100 U/mL), and 100 μg/mL streptomycin (Gibco; Thermo Fisher Scientific). TAMR cells were routinely cultured in DMEM/F12 medium without phenol red (Gibco; Thermo Fisher Scientific), containing 1% charcoal-striped FBS, 2.5 mM L-Glutamine (Thermo Fisher Scientific), 6 ng/mL insulin (Millipore Sigma) and 50 nM 4-hydroxytamoxifen (4-OHT; Millipore Sigma). All cell lines were grown and maintained at 37° C. in a humidified incubator with 5% CO2. Sub-confluent cultures (70-80%) were split 1:5 using 0.25% Trypsin/EDTA (Millipore Sigma).
Drug treatment of cultured cells: After harvesting, cells were counted in presence of Trypan Blue (Thermo Fisher Scientific) and seeded onto tissue culture plates to achieve ~50% confluency. The next day, treatment of cells was performed by aspirating the nonadherent cells and growth medium and replacing it with the fresh one containing selected concentrations of drugs. For Tamoxifen based studies, the nonadherent cells and growth media was aspirated and replaced with the DMEM supplemented with 4.5 g/L glucose and 4 mM L-Glutamine, 10% FBS, penicillin (100 U/mL), 100 μg/mL streptomycin, 10 nM estrogen, and selected concentrations of drugs. […] Post-treatment at selected times, the cells were harvested, washed with ice-cold PBS and used for protein or RNA purification as described below.
Protein immunoblotting: Total protein was extracted using ice-cold radio-immunoprecipitation assay (RIPA) buffer (Millipore Sigma) supplemented with Halt protease- and phosphatise-inhibitor cocktails (Fisher Scientific), 2 mM sodium orthovanadate (New England Biolabs, Inc., USA), and 5 mM sodium fluoride (Millipore Sigma) according to the manufacturer's protocol. Protein content in each sample was estimated using Bio-Rad Protein Assay (Bio-Rad, USA). Equal amounts of protein (20-30 μg) were separated on hand-cast SDS/PAGE (6-12%) mini-protein gels and transferred to 0.2 μm Immobilon-Psq polyvinylidene difluoride (PVDF) transfer membrane (Millipore Sigma). Membranes were blocked with 4% bovine serum albumin (BSA; Millipore Sigma) in TRIS-buffered saline (TBS) with 0.1% Tween-20 (TBS-T, Thermo Fisher Scientific) and probed overnight at 4° C. with the primary antibodies (FOXM1, Cell Signaling Technology (CST), Inc., USA; Cleaved Caspase-3, CST; β-actin, Thermo Fisher Scientific) diluted according to the manufacturer's protocol. […] After incubating membranes with the secondary antibodies, the membranes were then washed three times for 10 min each with TBST. Protein bands were developed using SuperSignal™ West Pico PLUS Chemiluminescent Substrate (Thermo Fisher Scientific) and detected using ChemiDoc Imaging System (Bio-Rad).

[4] = KG-1, HL-60 and K562 cells, 24 h

## O=C(Oc1cccc(-c2ccn(-c3nc(Nc4ccccc4)nc(N4CCOCC4)n3)n2)c1)c1ccco1 [STL001]
[1]; AML cell lines, single agent
  cytotoxic action alone: did not exert prominent cytotoxic action on its own
[1]; [4]
  apoptosis (caspase-3 cleavage) in combination with cytarabine: potent induction of apoptosis
  apoptosis (caspase-3 cleavage) in combination with venetoclax: potent induction of apoptosis
[1]; KG-1 shFOXM1 cells, venetoclax
  treatment sensitization effect in cells with stable knockdown of FOXM1: absent
[2]
  expression of FOXM1 transcriptional targets AURKB and CDC25B: significantly suppressed expression
  expression of PLK1 and FOXM1: downregulation
OVCAR-8, ES-2 cells
  cytotoxic effects as a single agent: did not exert significant cytotoxic effects
OVCAR-8, ES-2 cells; 24 hrs
  apoptotic cell death (caspase-3 cleavage) in combination with doxorubicin: potent induction of apoptotic cell death
[3]
  sensitivity to cytotoxic effects of 5′FU in combination: significantly enhanced the sensitivity of colorectal cancer cells to cytotoxic effects of 5′FU therapy
22RV1, LNCaP cells
  cytotoxic effects (caspase-3 cleavage) in combination with taxol: enhanced the cytotoxic effects of taxol-therapy
TAMR cells
  cytotoxic effects (caspase-3 cleavage, cell viability) in combination with tamoxifen: drastically enhances the cytotoxic effects of tamoxifen therapy
HCC-1143 cells
  sensitization effect in FOXM1 deficient cells: absent
FLO-1 cells
  sensitization to Cisplatin, 5′FU, Paclitaxel, Irinotecan: sensitizes esophageal adenocarcinoma cells (FLO-1) to conventional chemotherapeutic drugs
FOXM1; HCC-1143
  FOXM1 level in combination with cisplatin or doxorubicin: efficiently prevents cisplatin or doxorubicin chemotherapy induced FOXM1 upregulation
FOXM1; HCT-116 and HCT-FET
  FOXM1 levels in combination with 5′FU: remarkably decreased 5′FU-induced FOXM1 levels
FOXM1; OVCAR-8, ES-2, HCT-116, HCT-FET, TAM-R, HCC-1143, 22RV1, LNCaP, tested at 1, 5, 10 μM
  concentration giving reduction of cellular levels of FOXM1 protein: 1 µM
FOXM1; OVCAR-8, ES-2, 24 hrs
  FOXM1 protein levels in combination with doxorubicin: efficiently prevented FOXM1 activation
FOXM1; TAMR cells
  FOXM1 level in combination with tamoxifen: efficiently prevents tamoxifen induced FOXM1 upregulation
FOXM1; breast, colorectal, esophageal and ovarian cancer cells
  FOXM1 expression: demonstrably lowers FOXM1 expression
FOXM1; solid cancer cell lines
  efficiency in reducing cellular FOXM1 activity compared to STL427944: ~ 25 times
